Results reported in ChEMBL document CHEMBL1177725, “6-(3,4-dichlorophenyl)-1-[(methyloxy)methyl]-3-azabicyclo[4.1.0]heptane: a new potent and selective triple reuptake inhibitor” (J Med Chem, 2010).

Assays:
Format in all cases: cell-based
[1] = molecular target: Sodium-dependent dopamine transporter (Homo sapiens, UniProt Q01959); assay: Displacement of [N-methyl-3H]WIN-35428 from human recombinant DAT expressed in pig LLCPK cells after 2 hrs by liquid scintillation counting
[2] = molecular target: Sodium-dependent noradrenaline transporter (Homo sapiens, UniProt P23975); assay: Displacement of [N-methyl-3H]nisoxetine from human recombinant NET expressed in pig LLCPK cells after 2 hrs by liquid scintillation counting
Chain of Sodium-dependent noradrenaline transporter (P23975 whole entry): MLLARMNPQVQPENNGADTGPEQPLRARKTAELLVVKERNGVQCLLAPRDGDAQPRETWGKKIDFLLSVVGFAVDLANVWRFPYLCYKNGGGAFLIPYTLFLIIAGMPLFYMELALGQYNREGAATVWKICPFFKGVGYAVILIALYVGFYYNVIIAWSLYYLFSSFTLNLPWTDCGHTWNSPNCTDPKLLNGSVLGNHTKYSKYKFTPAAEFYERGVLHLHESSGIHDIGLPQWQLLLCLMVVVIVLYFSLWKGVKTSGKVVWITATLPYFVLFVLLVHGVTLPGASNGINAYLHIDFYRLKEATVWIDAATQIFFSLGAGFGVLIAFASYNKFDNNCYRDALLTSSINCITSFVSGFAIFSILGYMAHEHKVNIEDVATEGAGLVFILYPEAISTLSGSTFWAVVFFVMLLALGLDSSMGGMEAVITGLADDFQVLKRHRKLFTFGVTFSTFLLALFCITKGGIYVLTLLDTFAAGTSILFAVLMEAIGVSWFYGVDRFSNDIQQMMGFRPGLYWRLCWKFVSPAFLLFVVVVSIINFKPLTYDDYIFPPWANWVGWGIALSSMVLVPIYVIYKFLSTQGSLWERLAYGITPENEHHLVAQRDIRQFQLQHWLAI

[3] = molecular target: Sodium-dependent serotonin transporter (Homo sapiens, UniProt P31645); assay: Displacement of [N-methyl-3H]citalopram from human recombinant SERT expressed in pig LLCPK cells after 2 hrs by liquid scintillation counting
Chain of Sodium-dependent serotonin transporter (P31645 whole entry): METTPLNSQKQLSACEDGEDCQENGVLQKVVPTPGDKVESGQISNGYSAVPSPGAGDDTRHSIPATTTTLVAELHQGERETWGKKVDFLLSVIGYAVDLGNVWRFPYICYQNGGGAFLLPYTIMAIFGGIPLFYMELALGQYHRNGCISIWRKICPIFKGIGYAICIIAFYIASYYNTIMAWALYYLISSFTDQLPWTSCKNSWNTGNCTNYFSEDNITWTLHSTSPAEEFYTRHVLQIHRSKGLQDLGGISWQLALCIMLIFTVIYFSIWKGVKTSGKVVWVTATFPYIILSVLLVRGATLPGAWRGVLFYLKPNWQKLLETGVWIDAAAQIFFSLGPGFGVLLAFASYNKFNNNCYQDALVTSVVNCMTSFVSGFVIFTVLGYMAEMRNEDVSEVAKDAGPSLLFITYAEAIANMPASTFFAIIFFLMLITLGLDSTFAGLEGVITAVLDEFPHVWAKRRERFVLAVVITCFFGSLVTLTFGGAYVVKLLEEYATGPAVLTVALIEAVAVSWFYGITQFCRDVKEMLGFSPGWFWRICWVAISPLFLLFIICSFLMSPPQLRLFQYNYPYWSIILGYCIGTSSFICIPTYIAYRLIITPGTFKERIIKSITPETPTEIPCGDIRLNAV

Chain of Sodium-dependent dopamine transporter (Q01959 whole entry): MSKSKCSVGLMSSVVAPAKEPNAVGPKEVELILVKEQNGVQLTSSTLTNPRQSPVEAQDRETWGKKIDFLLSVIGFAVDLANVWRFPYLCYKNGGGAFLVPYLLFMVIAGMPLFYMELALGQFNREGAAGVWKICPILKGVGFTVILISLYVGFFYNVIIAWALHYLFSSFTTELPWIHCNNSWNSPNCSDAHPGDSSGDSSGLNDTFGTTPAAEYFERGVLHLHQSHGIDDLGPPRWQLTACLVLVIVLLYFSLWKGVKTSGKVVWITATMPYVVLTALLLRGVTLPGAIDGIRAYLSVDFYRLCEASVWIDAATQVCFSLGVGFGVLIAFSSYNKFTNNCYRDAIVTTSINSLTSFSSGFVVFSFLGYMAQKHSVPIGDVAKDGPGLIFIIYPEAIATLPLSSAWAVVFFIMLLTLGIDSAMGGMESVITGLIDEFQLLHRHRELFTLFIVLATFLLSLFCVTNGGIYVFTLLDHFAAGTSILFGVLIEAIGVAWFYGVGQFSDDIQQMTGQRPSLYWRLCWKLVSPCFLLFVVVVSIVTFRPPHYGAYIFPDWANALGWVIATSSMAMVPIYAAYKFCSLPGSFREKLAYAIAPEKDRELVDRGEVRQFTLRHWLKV

## COC[C@@]12CN(C)CC[C@]1(c1ccc(Cl)c(Cl)c1)C2
[1]
  Ki: 31.6 nM
[2]
  Ki: 794 nM
[3]
  Ki: 12.6 nM

## COC[C@@]12CN(C(C)C)CC[C@]1(c1ccc(Cl)c(Cl)c1)C2
[1]
  Ki: 1260 nM
[2]
  Ki: 5010 nM
[3]
  Ki: 631 nM

## Clc1ccc([C@@H]2CCNC[C@@]23CCCOC3)cc1Cl
[1]
  Ki: 12.6 nM
[2]
  Ki: 3.98 nM
[3]
  Ki: 0.316 nM

## C=CCC(OC)[C@]12CNCC[C@]1(c1ccc(Cl)c(Cl)c1)C2 (mixture of isomers; form 2) [6-(3,4-DICHLOROPHENYL)-1-[1-(METHYLOXY)-3-BUTEN-1-YL]-3-AZABICYCLO[4.1.0]HEPTANE (DIASTEREOMERIC MIX)]
[1]
  Ki: 1.58 nM
[2]
  Ki: 3.98 nM
[3]
  Ki: 1.26 nM

## COC[C@@]12CNCC[C@]1(c1ccc(OC(F)(F)F)cc1)C2 (racemic)
[1]
  Ki: 7940 nM
[2]
  Ki: 3160 nM
[3]
  Ki: 3.16 nM

## COC[C@H]1[C@@H]2CNCC[C@@]21c1ccc(Cl)c(Cl)c1 (racemic)
[1]
  Ki: 1260 nM
[2]
  Ki: 2000 nM
[3]
  Ki: 50.1 nM

## COC[C@@H]1[C@@H]2CCNC[C@]12c1ccc(Cl)c(Cl)c1 (racemic)
[1]
  Ki: 126 nM
[2]
  Ki: 63.1 nM
[3]
  Ki: 31.6 nM

## COC[C@@]12CNC[C@H](OC)[C@]1(c1ccc(Cl)c(Cl)c1)C2 (racemic)
[1]
  Ki: 501 nM
[2]
  Ki: 1260 nM
[3]
  Ki: 100 nM

## COC[C@@]12CNC[C@@H](OC)[C@]1(c1ccc(Cl)c(Cl)c1)C2 (racemic)
[1]
  Ki: 398 nM
[2]
  Ki: 1580 nM
[3]
  Ki: 251 nM

## COC[C@@H]1[C@@H]2CNCC[C@]12c1ccc(Cl)c(Cl)c1 (racemic)
[1]
  Ki: 398 nM
[2]
  Ki: 316 nM
[3]
  Ki: 10 nM

## COC[C@@]12CNCC[C@]1(c1ccc(Cl)cc1)C2 (racemic)
[1]
  Ki: 251 nM
[2]
  Ki: 200 nM
[3]
  Ki: 15.8 nM

## COC[C@@]12CNCC[C@]1(c1ccc(F)c(Cl)c1)C2 (racemic)
[1]
  Ki: 158 nM
[2]
  Ki: 316 nM
[3]
  Ki: 1.58 nM

## COC[C@@]12CNCC[C@]1(c1ccc(Cl)c(C(F)(F)F)c1)C2 (racemic)
[1]
  Ki: 3160 nM
[2]
  Ki: 200 nM
[3]
  Ki: 15.8 nM

## COC[C@@]12CNCC[C@]1(c1ccc(C(F)(F)F)c(Cl)c1)C2 (racemic)
[1]
  Ki: 1580 nM
[2]
  Ki: 126 nM
[3]
  Ki: 15.8 nM

## COC[C@@]12CN[C@@H](C)C[C@]1(c1ccc(Cl)c(Cl)c1)C2 (racemic)
[1]
  Ki: 39.8 nM
[2]
  Ki: 50.1 nM
[3]
  Ki: 7.94 nM

## COC[C@@]12CNC[C@H](F)[C@]1(c1ccc(Cl)c(Cl)c1)C2 (racemic)
[1]
  Ki: 100 nM
[2]
  Ki: 100 nM
[3]
  Ki: 5.01 nM

## COC[C@@]12CNC[C@@H](F)[C@]1(c1ccc(Cl)c(Cl)c1)C2 (racemic)
[1]
  Ki: 100 nM
[2]
  Ki: 50.1 nM
[3]
  Ki: 3.98 nM

## FC(F)(F)COC[C@@]12CNCC[C@]1(c1ccc(Cl)c(Cl)c1)C2 (racemic)
[1]
  Ki: 39.8 nM
[2]
  Ki: 79.4 nM
[3]
  Ki: 6.31 nM

## CCOC(=O)[C@@]12CNCC[C@]1(c1ccc(Cl)c(Cl)c1)C2 (racemic)
[1]
  Ki: 5.01 nM
[2]
  Ki: 7.94 nM
[3]
  Ki: 15.8 nM

## NC(=O)[C@@]12CNCC[C@]1(c1ccc(Cl)c(Cl)c1)C2 (racemic)
[1]
  Ki: 251 nM
[2]
  Ki: 794 nM
[3]
  Ki: 100 nM

## CC#CNC(=O)[C@@]12CNCC[C@]1(c1ccc(Cl)c(Cl)c1)C2 (racemic)
[1]
  Ki: 158 nM
[2]
  Ki: 501 nM
[3]
  Ki: 100 nM

## Clc1ccc([C@]23CCNC[C@@]2(COCC2CC2)C3)cc1Cl (racemic) [1-((CYCLOPROPYLMETHOXY)METHYL)-6-(3,4-DICHLOROPHENYL)-3-AZABICYCLO[4.1.0]HEPTANE (ENANTIOMERIC MIX)]
[1]
  Ki: 12.6 nM
[2]
  Ki: 50.1 nM
[3]
  Ki: 1.26 nM

## COC[C@@]12CNCC[C@]1(c1ccc3ccccc3c1)C2 (racemic) [1-(METHOXYMETHYL)-6-(NAPHTHALEN-2-YL)-3-AZABICYCLO[4.1.0]HEPTANE (ENANTIOMERIC MIX)]
[1]
  Ki: 31.6 nM
[2]
  Ki: 12.6 nM
[3]
  Ki: 0.316 nM

## Clc1ccc([C@]23CNCC[C@H]2C3)cc1Cl (racemic) [1-PHENYL-3-AZABICYCLO[4.1.0]HEPTANE (STRUCTURAL MIX)]
[1]
  Ki: 79.4 nM
[2]
  Ki: 158 nM
[3]
  Ki: 126 nM

## CCOC[C@@]12CNCC[C@]1(c1ccc(Cl)c(Cl)c1)C2 (racemic) [6-(3,4-DICHLOROPHENYL)-1-[(ETHYLOXY)METHYL]-3-AZABICYCLO[4.1.0]-HEPTANE (ENANTIOMERIC MIX)]
[1]
  Ki: 6.31 nM
[2]
  Ki: 10 nM
[3]
  Ki: 1.26 nM

## Clc1ccc([C@@]23CCNC[C@@H]2C3)cc1Cl (racemic) [RAC-1-(3,4-DICHLO ROPHENYL)-3-AZABICYCLO[4.1.0]HEPTANE (ENANTIOMERS)]
[1]
  Ki: 50.1 nM
[2]
  Ki: 251 nM
[3]
  Ki: 25.1 nM

## OC[C@@]12CNCC[C@]1(c1ccc(Cl)c(Cl)c1)C2 (racemic) [RAC-1-(3,4-DICHLOROPHENYL)-3-AZABICYCLO[4.1.0]HEPTAN-6-YL)METHANOL (STRUCTURAL MIX)]
[1]
  Ki: 200 nM
[2]
  Ki: 158 nM
[3]
  Ki: 20 nM

## CC(=O)[C@@]12CNCC[C@]1(c1ccc(Cl)c(Cl)c1)C2 (relative stereo)
[1]
  Ki: 3.98 nM
[2]
  Ki: 15.8 nM
[3]
  Ki: 1 nM

## Clc1ccc([C@@]23CCNC[C@@H]2C3)cc1Cl (relative stereo) [RAC-1-(3,4-DICHLO ROPHENYL)-3-AZABICYCLO[4.1.0]HEPTANE (ENANTIOMERS)]
[1]
  Ki: 50.1 nM
[2]
  Ki: 251 nM
[3]
  Ki: 39.8 nM

## COC[C@@]12CCNC[C@]1(c1ccc(Cl)c(Cl)c1)C2 (relative stereo) [RAC-1-(3,4-DICHLOROPHENYL)-6-(METHOXYMETHYL)-2-AZABICYCLO[4.1.0]HEPTANE (ENANTIOMERS)]
[1]
  Ki: 63.1 nM
[2]
  Ki: 100 nM
[3]
  Ki: 12.6 nM

## Clc1ccc([C@]23CNCC[C@H]2C3)cc1Cl (relative stereo; 4) [1-PHENYL-3-AZABICYCLO[4.1.0]HEPTANE (STRUCTURAL MIX)]
[1]
  Ki: 39.8 nM
[2]
  Ki: 63.1 nM
[3]
  Ki: 79.4 nM

## Clc1ccc([C@]23CNCC[C@H]2C3)cc1Cl (relative stereo; 5) [1-PHENYL-3-AZABICYCLO[4.1.0]HEPTANE (STRUCTURAL MIX)]
[1]
  Ki: 100 nM
[2]
  Ki: 398 nM
[3]
  Ki: 251 nM

## OC[C@@]12CNCC[C@]1(c1ccc(Cl)c(Cl)c1)C2 (relative stereo; 14) [RAC-1-(3,4-DICHLOROPHENYL)-3-AZABICYCLO[4.1.0]HEPTAN-6-YL)METHANOL (STRUCTURAL MIX)]
[1]
  Ki: 100 nM
[2]
  Ki: 398 nM
[3]
  Ki: 39.8 nM

## OC[C@@]12CNCC[C@]1(c1ccc(Cl)c(Cl)c1)C2 (relative stereo; 15) [RAC-1-(3,4-DICHLOROPHENYL)-3-AZABICYCLO[4.1.0]HEPTAN-6-YL)METHANOL (STRUCTURAL MIX)]
[1]
  Ki: 79.4 nM
[2]
  Ki: 100 nM
[3]
  Ki: 7.94 nM

## CCOC[C@@]12CNCC[C@]1(c1ccc(Cl)c(Cl)c1)C2 (relative stereo; 30) [6-(3,4-DICHLOROPHENYL)-1-[(ETHYLOXY)METHYL]-3-AZABICYCLO[4.1.0]-HEPTANE (ENANTIOMERIC MIX)]
[1]
  Ki: 63.1 nM
[2]
  Ki: 100 nM
[3]
  Ki: 10 nM

## CCOC[C@@]12CNCC[C@]1(c1ccc(Cl)c(Cl)c1)C2 (relative stereo; 31) [6-(3,4-DICHLOROPHENYL)-1-[(ETHYLOXY)METHYL]-3-AZABICYCLO[4.1.0]-HEPTANE (ENANTIOMERIC MIX)]
[1]
  Ki: 3.98 nM
[2]
  Ki: 7.94 nM
[3]
  Ki: 1 nM
